Structures can show the parent of a compound that is named as a salt.
Columns and labels:
[1] = acute toxicity, LD50/30, injection into blood circulation, 30 days observation; assay type: in vivo, Swiss mice and Wistar rats; conditions: in vivo, iv; dose causing death of 50% of animals within 30 days; slow injection into the blood circulation during 3 to 5 minutes; mice and rats; probit analysis
Method: (§1) The acute toxicity values of the products prepared according to Examples 1 to 16 were determined on laboratory mice and rats in the following manner.
(§2) Solutions containing the compounds in various concentrations were prepared by using physiological saline solution or glucose solution of 5% by weight concentration and the active agents were administered in various concentrations into the blood circulation of the animals by injecting them slowly during 3 to 5 minutes. Groups consisting of 6 to 10 animals (Swiss mice and Wistar rats of both sexes) each were used for the various dose levels. […] The LD50/30 value (i.e. the dose causing the death of 50% of the experimental animals within 30 days) was determined from the number of animals died during this period by using probit analysis/D. J. Finney: Probit Analysis (2nd ed.) Cambridge University Press (1952)/. These values expressed in mmol/kg of body-weight for the active agents according to the invention are summarized in column (B) of Table 1.

[2] = radioactive isotope elimination-increasing effect, isotope into abdominal cavity, whole-body retention; assay type: in vivo, Swiss mice; conditions: for EI value: effectivity (isotope elimination as % related to control) multiplied by LD50/30, 0-5 weak, 5-50 medium, 50-100 good, above 100 excellent; for F factor: multiplication of isotope elimination relative to untreated animals, i.v. 50 to 100 μmol/kg, 30 to 60 minutes after isotope; for radioactivity excreted from the animal organism within 1 day / radioactivity excreted from the animal organism within 4 days / radioactivity excreted from the animal organism within 7 days: Sr-85 into abdominal cavity, single treatment, 100 μmol/kg (stated for Example 13); for radioactivity excreted from the animal organism within 1 day: control 15%; for radioactivity excreted from the animal organism within 4 days: control 25%; for radioactivity excreted from the animal organism within 7 days: control 30%
Excerpt: The action of the compounds of formula (I) according to the invention, which manifests itself as an increase in the elimination of metal ions damaging the living organism, was investigated by using radioactive strontium or cerium ions on Swiss mice and Wistar rats of both sexes.
The elimination was studied on radioactive isotopes introduced in various routes to various sites, e.g. to the blood circulation, abdominal cavity, lungs, muscles or subcutaneous connective tissue of the experimental animals. The compound increasing the elimination of the isotopes was administered daily once or two times in the form of an injection, powder or liquid aerosol or plaster to the organism of the experimental animals. Thereafter, whole body activity measurements were performed and retention curves were taken up which then were compared to the results obtained in the control group.
The retention curves obtained were analysed on a computer. "Nonlinear Regression by the Code of BMDP-3R" (BMDP Statistical Software Manual, UCLA, Los Angeles, 1990, Chief Ed. W. J. Dixon) computer software was used for this purpose. It could be stated from the results obtained that the curves could be described by a two-component descending exponential function. Two data were calculated for characterizing the effectivity. One of these was the so-called F factor indicating the increase in the elimination in relation to the control and meaning the multiplication of the isotope elimination under effect of the test compound in relation to the untreated animals/see column (C) in Table 1/.
For the illustrative comparison of the compounds according to the invention additional characteristic data, the so-called EI values are given which were obtained by multiplying the extent of isotope elimination as percentage related to the control group (effectivity, E) with the acute toxicity value (LD50/30, innocuous, I)/see column (D) in Table 1/. Although the EI value is numerically not identical to the therapeutic ratio (safety index), it indicates in all cases to a weak or excellent activity of a product.
The radioactive isotope elimination-increasing effects of compounds prepared according to Examples 1 to 16 were compared on Swiss mice as described hereinafter.
An activity of 37 to 74 kBg (1 to 2 μCi) of radioactive strontium (Sr-85Cl2) or radioactive cerium (Ce-144Cl3), respectively, was administered into the abdominal cavity of the animals which were then divided into treatment groups consisting of 5 to 10 animals each. At 30 to 60 minutes after administration of the isotope, the animals of the treated groups were intravenously (i.v.) given the active agent used in an amount to achieve s concentration of 50 to 100 μmol/kg of body-weight in the animal organism for each treatment. The animals of the control groups were similarly treated with the carrier (sterile physiological saline or glucose solution of 5% by weight concentration) without active agent.
The amount of radioactivity introduced to the animal organism was determined immediately after administration of the isotope, thru these measurements were repeated daily or in every two the or three days in a device constructed for the purpose of the whole-body measurements on small animals. The counts observed were related to the starting activity value of the zero (0) day and a so-called retention/time correlation was obtained by considering the activity retained in the organism. The change of activity of the animal organism in the time is illustrated in FIG. 1 where the time (in days) elapsed after the treatment is shown on the abscissa and the whole-body retention as percentage is plotted on the ordinate. It can be seen that the rate of elimination of Sr-85 administered into the abdominal cavity of control animals was slow: within 1 day only 15%, within 4 days 25% and within 7 days 30% of the activity were eliminated from their organism and the elimination was even more delayed in the later period. […]

laboratory mice and rats = assay: acute toxicity, LD50/30, injection into blood circulation, 30 days observation; assay type: in vivo, Swiss mice and Wistar rats; conditions: dose causing death of 50% of animals within 30 days, slow injection into the blood circulation during 3 to 5 minutes, mice and rats, probit analysis
Method: as §1, §2

O=C([O-])C(C(=O)[O-])N1CCOCCOCCN(C(C(=O)[O-])C(=O)[O-])CCOCCOCC1.[Na+].[Na+].[Na+].[Na+] [1/a, N,N'-bis(dicarboxymethyl)-1,4,10,13-tetraoxa-7,16-diazacyclooctadecane tetrasodium salt]
LD50 at 720 h [1]: 327 µmol/kg
EI value [2]: 5.40
F factor [2]: 1.8

O=C([O-])C(C(=O)[O-])N1CCOCCOCCN(C(C(=O)[O-])C(=O)[O-])CCOCCOCC1.[Na+].[Na+].[Na+].[Na+] [1/b, N,N'-bis(dicarboxymethyl)-1,4,10,13-tetraoxa-7,16-diazacyclooctadecane tetrasodium salt]
Acute toxicity LD50/30 (laboratory mice and rats; 43200 min): 0.379 mmol/kg
EI value [2]: 9.66
F factor [2]: 2.8

O=C([O-])C(C(=O)[O-])N1CCOCCOCCN(C(C(=O)[O-])C(=O)[O-])CCOCCOCC1.[K+].[K+].[K+].[K+] [3/a, N,N'-bis(dicarboxymethyl)-1,4,10,13-tetraoxa-7,16-diazacyclooctadecane tetrapotassium salt]
LD50 at 720 h [1]: 333 µmol/kg
EI value [2]: 12.30
F factor [2]: 2.3

O=C([O-])C(C(=O)[O-])N1CCOCCOCCN(C(C(=O)[O-])C(=O)[O-])CCOCCOCC1.[K+].[K+].[K+].[K+] [3/b, N,N'-bis(dicarboxymethyl)-1,4,10,13-tetraoxa-7,16-diazacyclooctadecane tetrapotassium salt]
Acute toxicity LD50/30 (laboratory mice and rats; 43200 min): 0.272 mmol/kg
EI value [2]: 8.90
F factor [2]: 1.7

O=C(O)C(C(=O)O)N1CCOCCOCCN(C(C(=O)O)C(=O)O)CCOCCOCC1 [Example 2, N,N'-bis(dicarboxymethyl)-1,4,10,13-tetraoxa-7,16-diazacyclooctadecane tetrasodium salt containing disodium hydroxy malonate]
LD50 at 720 h [1]: 368 µmol/kg
EI value [2]: 11.10
F factor [2]: 3.3

O=C([O-])C(C(=O)[O-])N1CCOCCOCCN(C(C(=O)[O-])C(=O)[O-])CCOCCOCC1.[Mg+2].[Na+].[Na+] [Example 4, N,N'-bis(dicarboxymethyl)-1,4,10,13-tetraoxa-7,16-diazacyclooctadecane magnesium complex disodium salt]
Acute toxicity LD50/30 (laboratory mice and rats): 0.211 mmol/kg
EI value [2]: 7.30
F factor [2]: 2.3

N.N.O=C([O-])C(C(=O)[O-])N1CCOCCOCCN(C(C(=O)O)C(=O)O)CCOCCOCC1.[Ca+2] [Example 7, N,N'-bis(dicarboxymethyl)-1,4,10,13-tetraoxa-7,16-diazacyclooctadecane calcium complex diammonium]
Acute toxicity LD50/30 (laboratory mice and rats): above 2.5 mmol/kg
EI value [2]: 65.00
F factor [2]: 1.7

O=C([O-])C(C(=O)[O-])N1CCOCCOCCN(C(C(=O)[O-])C(=O)[O-])CCOCCOCC1.[Ca+2].[Ca+2] [Example 8, N,N'-bis(dicarboxymethyl)-1,4,10,13-tetraoxa-7,16-diazacyclooctadecane calcium complex calcium salt]
Acute toxicity LD50/30 (laboratory mice and rats): above 1.5 mmol/kg
EI value [2]: 58.00
F factor [2]: 1.6

O=C([O-])C(C(=O)[O-])N1CCOCCOCCN(C(C(=O)[O-])C(=O)[O-])CCOCCOCC1.[Na+].[Na+].[Zn+2] [Example 10, N,N'-bis(dicarboxymethyl)-1,4,10,13-tetraoxa-7,16-diazacyclooctadecane zinc complex disodium salt]
Acute toxicity LD50/30 (laboratory mice and rats): 0.091 mmol/kg
EI value [2]: 3.20
F factor [2]: 2.3

O=C([O-])C(C(=O)[O-])N1CCOCCOCCN(C(C(=O)[O-])C(=O)O)CCOCCOCC1.[Na+].[Na+].[Na+] [Example 11, N,N'-bis(dicarboxymethyl)-1,4,10,13-tetraoxa-7,16-diazacyclooctadecane trisodium salt]
LD50 at 720 h [1]: 111 µmol/kg
EI value [2]: 2.90
F factor [2]: 2.6

CC(C(=O)[O-])(C(=O)[O-])N1CCOCCOCCN(C(C(=O)[O-])C(=O)[O-])CCOCCOCC1.[Na+].[Na+].[Na+].[Na+] [Example 12, N-dicarboxymethyl-N'-(1,1'-dicarboxyethyl)-1,4,10,13-tetraoxa-7,16-diazacyclooctadecane tetrasodium salt]
LD50 at 720 h [1]: 305 µmol/kg
EI value [2]: 7.90
F factor [2]: 1.5

CCC(C(=O)O)(C(=O)O)N1CCOCCOCCN(C(C(=O)O)C(=O)O)CCOCCOCC1 [Example 13, N-dicarboxymethyl-N'-(1,1'-dicarboxypropyl)-1,4,10,13-tetraoxa-7,16-diazacyclooctadecane tetrasodium salt sodium bromide double salt]
LD50 at 720 h [1]: 302 µmol/kg
radioactivity excreted from the animal organism within 1 day [2]: 40%
radioactivity excreted from the animal organism within 4 days [2]: 65%
radioactivity excreted from the animal organism within 7 days [2]: 67%
EI value [2]: 13.30
F factor [2]: 2.1

CC(C(=O)O)(C(=O)O)N1CCOCCOCCN(C(C)(C(=O)O)C(=O)O)CCOCCOCC1 [Example 15, N,N'-bis(1,1'-dicarboxyethyl)-1,4,10,13-tetraoxa-7,16-diazacyclooctadecanetetrasodium salt]
LD50 at 720 h [1]: 450 µmol/kg
EI value [2]: 6.80
F factor [2]: 1.3

O=C(O)C(Cc1ccccc1)(C(=O)O)N1CCOCCOCCN(C(Cc2ccccc2)(C(=O)O)C(=O)O)CCOCCOCC1 [Example 16, N,N'-bis(benzyl-dicarboxymethyl)-1,4,10,13-tetraoxa-7,16-diazacyclooctadecane tetrasodium salt sodium bromide double salt]
LD50 at 720 h [1]: 470 µmol/kg
EI value [2]: 7.10
F factor [2]: 1.3

N,N'-bis(dicarboxymethyl)-1,4,10,13-tetraoxa-7,16-diazacyclooctadecane calcium complex disodium salt containing disodium hydroxymalonate and sodium chloride [6/a]
Acute toxicity LD50/30 (laboratory mice and rats): above 3.0 mmol/kg
EI value [2]: 158.00
F factor [2]: 3.9

N,N'-bis(dicarboxymethyl)-1,4,10,13-tetraoxa-7,16-diazacyclooctadecane iron(II) complex disodium salt [Example 9]
Acute toxicity LD50/30 (laboratory mice and rats): 0.250 mmol/kg
EI value [2]: 8.25
F factor [2]: 1.7

N,N'-bis(dicarboxymethyl)-1,4,10,13-tetraoxa-7,16-diazacyclooctadeoane calcium complex disodium salt containing sodium chloride [Example 5]
Acute toxicity LD50/30 (laboratory mice and rats): above 2.5 mmol/kg
radioactivity excreted from the animal organism within 1 day [2]: 81%
radioactivity excreted from the animal organism within 4 days [2]: 84%
radioactivity excreted from the animal organism within 7 days [2]: 85%
EI value [2]: 145.00
F factor [2]: 3.7
